This test concerns Plasmodium berghei. Put plainly: Luciferase/luciferin-expressing antifolate-resistant parasites were used to infect a culture of HepG2 cells that were pre-incubated with compounds. Infected hepatocytes emit light due to the luciferase reaction. Assay results are presented as the percent inhibition of light emission compared to control. […]. The note with it: sporozoite; for IC90: read-out: LUCIFERASE INFECTION ASSAY - IC90. The format is functional.

Where [1] appears, read: read-out: LUCIFERASE INFECTION ASSAY - IC50.

Where only a bound is given, the exact number is not on record here.

As usually defined, the IC50 is the concentration that inhibits the measured activity by half. The IC90 is the point of the concentration-response curve where the effect stands at 90%. On to `CC1(C(=O)N2CCN(c3ccc(C(F)(F)F)cn3)CC2)Cc2ccccc2C(=O)O1` (stereo not given), for which the IC90 is more than 10 µM. Moreover, for the setting “HEPG2TOX_HILL_SLOPE 9.02, HEPG2TOX_R_SQUARED 0.896, PBLUC_HILL_SLOPE 11.4, 1.60, PBLUC_R_SQUARED 0.0115, 0.213, read-out: LUCIFERASE INFECTION ASSAY - IC50”, the IC50 was 7.88 µM.

On to `O=C(CN1CCC(NC(=O)c2cn(-c3ccccc3)nc2-c2cccs2)CC1)Nc1ccccc1`, for which the concentration for an effect of 90% (IC90) was more than 10 µM. For the same compound, the IC50 under setting [1] was more than 10 µM.

As to `CC(=O)c1cccc(-c2cnc3ccc(-c4ccc(F)cc4)nn23)c1`, the IC90 was 4.45 µM. The IC50 (HEPG2TOX_HILL_SLOPE 2.73, HEPG2TOX_R_SQUARED 0.88, PBLUC_HILL_SLOPE 3.37, PBLUC_R_SQUARED 0.558, read-out: LUCIFERASE INFECTION ASSAY - IC50) came out at 2.32 µM.

Consider `CNC(=O)c1cnc(N2CCN(Cc3ccccc3C#N)C2=O)s1`, for which the concentration for an effect of 90% (IC90) was more than 10 µM. Under setting [1], the IC50 is more than 10 µM.

As to `Cc1nc2sccc2c(=O)n1NC(=O)c1ccc2ccccc2n1`, the IC90 is more than 10 µM. In addition, under setting [1], the IC50 was more than 10 µM.

For the compound `Cc1ccccc1CN1CCN2C(C(=O)NCc3cccc(Cl)c3)=COC2=NC1=O`, the IC90 is more than 10 µM. Under setting [1], the IC50 is more than 10 µM.

As to `CNc1snc(C)c1C(=O)NC(C)c1ccc(C(C)C)cc1` (stereo not given), the concentration for an effect of 90% (IC90) was determined as 2.91 µM. In addition, the IC50 (HEPG2TOX_HILL_SLOPE 0.648, HEPG2TOX_R_SQUARED 0.871, PBLUC_HILL_SLOPE 1.92, PBLUC_R_SQUARED 0.818, read-out: LUCIFERASE INFECTION ASSAY - IC50) was determined as 0.93 µM.

Turning to `CC(C)(C)c1ccc(CSc2nnc(-c3ccco3)n2-c2ccc(OCc3ccccc3)cc2)cc1`, the IC90 was more than 6.66 µM. Besides, the IC50 (FFLUC_HILL_SLOPE 93.6, FFLUC_R_SQUARED 0.0881, read-out: LUCIFERASE INFECTION ASSAY - IC50) was more than 6.66 µM.

Regarding `CN(CC(=O)Nc1nc(-c2c[nH]c3ccccc23)cs1)C1CCCCC1`, the IC90 was more than 10 µM. In addition, the IC50 under setting [1] was more than 10 µM.

For `O=C1c2cccnc2C(=O)N1Cc1ccc2c(c1)OCO2`, the IC90 was more than 11.7 µM. Besides, under setting [1], the IC50 was more than 11.7 µM.

Turning to `Cc1cc(C(=O)CSc2nnc(Cc3cccc4ccccc34)n2C2CCCCC2)c(C)n1CC(F)(F)F`, the IC90 is more than 10 µM. In addition, the IC50 (FFLUC_HILL_SLOPE 15.7, FFLUC_R_SQUARED 0.514, PBLUC_HILL_SLOPE 7.31, PBLUC_R_SQUARED 0.494, read-out: LUCIFERASE INFECTION ASSAY - IC50) amounted to 8.44 µM.

`CS(=O)(=O)c1ccc2nc(NC(=O)c3cc(-c4ccccc4)nn3-c3ccccc3)sc2c1`: the IC90 is more than 10 µM. The IC50 (PBLUC_HILL_SLOPE 1.63, PBLUC_R_SQUARED 0.444, read-out: LUCIFERASE INFECTION ASSAY - IC50) worked out at 4.67 µM.

In the case of `COC(=O)c1ccc(-c2cnc3ccc(NCc4cccc(Cl)c4)nn23)cc1`, the IC90 is more than 8.4 µM. Also, the IC50 (PBLUC_HILL_SLOPE 14.1, PBLUC_R_SQUARED 0.0198, read-out: LUCIFERASE INFECTION ASSAY - IC50) was found to be 7.46 µM.

As to `Cc1nn(-c2ccccc2Cl)c2sc(C(=O)NC3CCN(C(C)C)CC3)cc12`, the IC90 is more than 10 µM. Further, for the setting “PBLUC_HILL_SLOPE 2.83, PBLUC_R_SQUARED 0.189, read-out: LUCIFERASE INFECTION ASSAY - IC50”, the IC50 was 5.04 µM.

Take `O=C(NCc1ccc(N2CCCCC2)nc1)c1cccc2c[nH]nc12`: the IC90 is more than 10 µM. Further, the IC50 under setting [1] was more than 10 µM.

`C=S(NC(=O)Nc1ccc(Cl)cc1)c1sc(Cl)c2c1C(=O)CCC2` (stereo not given): the 90% effect concentration (IC90) is more than 8.22 µM. The IC50 under setting [1] was more than 8.22 µM.

Consider `O=C(N/N=C/c1ccc(O)cc1O)c1ccc[n+]([O-])c1`, for which the IC90 is 0.362 µM. The IC50 (PBLUC_HILL_SLOPE 3, PBLUC_R_SQUARED 0.854, read-out: LUCIFERASE INFECTION ASSAY - IC50) worked out at 0.174 µM.

Turning to `CCCCNC(=O)c1c(NC(=O)c2ccccc2)nc2ccccn12`, the IC90 amounted to 7.86 µM. The IC50 (FFLUC_HILL_SLOPE 2.02, FFLUC_R_SQUARED 0.16, HEPG2TOX_HILL_SLOPE 0.796, HEPG2TOX_R_SQUARED 0.541, PBLUC_HILL_SLOPE 4.74, PBLUC_R_SQUARED 0.419, read-out: LUCIFERASE INFECTION ASSAY - IC50) worked out at 4.95 µM.

Turning to `Cc1ccc2nc(NC(=O)C(C)Oc3ccccc3)c(C(=O)NC3CCCCC3)n2c1` (stereo not given), the IC90 is more than 7.85 µM. In addition, the IC50 (HEPG2TOX_HILL_SLOPE 7.98, HEPG2TOX_R_SQUARED 0.0955, PBLUC_HILL_SLOPE 9.58, PBLUC_R_SQUARED 0.283, read-out: LUCIFERASE INFECTION ASSAY - IC50) was determined as 6.26 µM.

For `CCCCNC(=O)c1c(NC(=O)c2ccccc2F)nc2ccc(C)cn12`, the IC90 came out at 3.54 µM. The IC50 (FFLUC_HILL_SLOPE 17.2, FFLUC_R_SQUARED 0.157, HEPG2TOX_HILL_SLOPE 8.23, HEPG2TOX_R_SQUARED 0.602, PBLUC_HILL_SLOPE 11.7, PBLUC_R_SQUARED 0.726, read-out: LUCIFERASE INFECTION ASSAY - IC50) is 2.94 µM.

As to `Cc1nc2sccn2c1C(=O)c1ccc(NS(=O)(=O)c2cc(C(=O)O)n(C)c2)cc1`, the IC90 is more than 10 µM. Under setting [1], the IC50 is more than 10 µM.

Regarding `CCCn1c(NC(=O)CSc2ccc3c4c(cccc24)C(=O)c2ccccc2-3)nc2ccccc21`, the IC90 was found to be 3.87 µM. Also, where the note is “PBLUC_HILL_SLOPE 16.8, PBLUC_R_SQUARED 0.332, read-out: LUCIFERASE INFECTION ASSAY - IC50”, the IC50 stood at 3.39 µM.

On to `CN1c2ccsc2C(=O)/C(=C/Nc2cccc(Cl)c2)S1(=O)=O`, for which the IC90 is more than 9.3 µM. Moreover, under setting [1], the IC50 is more than 9.3 µM.

`O=C(Nc1ccc([N+](=O)[O-])cc1)Nc1cccnc1Cl`: the IC90 is 2.05 µM. Besides, for the setting “PBLUC_HILL_SLOPE 2.35, PBLUC_R_SQUARED 0.752, read-out: LUCIFERASE INFECTION ASSAY - IC50”, the IC50 worked out at 0.807 µM.

As for `CCOC(=O)c1ccc(N2CCN(C(=O)CCc3cc(C(C)(C)C)c(O)c(C(C)(C)C)c3)CC2)nc1`, the IC90 is more than 10 µM. For the same compound, the IC50 under setting [1] is more than 10 µM.

On to `CCC/C(=N\n1c(-c2ccc(-c3ccccc3)cc2)cs/c1=N/c1c(C)n(C)n(-c2ccccc2)c1=O)c1ccccc1`, for which the IC90 was more than 10 µM. The IC50 under setting [1] is more than 10 µM.

For `CCc1sc2nc(SCC(=O)NC(C)(C#N)C(C)C)n(Cc3ccc(C)cc3)c(=O)c2c1C` (stereo not given), the IC90 was more than 10 µM. Also, the IC50 (FFLUC_HILL_SLOPE 10, FFLUC_R_SQUARED 0.698, read-out: LUCIFERASE INFECTION ASSAY - IC50) was more than 10 µM.

As for `CCOC(=O)C1SC(C(C#N)c2ccccn2)=NC1(c1ccc(C)cc1)C(F)(F)F` (stereo not given), the IC90 is more than 10 µM. Also, the IC50 under setting [1] was more than 10 µM.

Regarding `N/C(=N\NC(=O)c1cccc(C(F)(F)F)c1)c1ccc(C(F)(F)F)cn1`, the IC90 came out at 1.42 µM. Further, where the note is “HEPG2TOX_HILL_SLOPE 1.95, HEPG2TOX_R_SQUARED 0.695, PBLUC_HILL_SLOPE 3.85, PBLUC_R_SQUARED 0.803, read-out: LUCIFERASE INFECTION ASSAY - IC50”, the IC50 was determined as 0.802 µM.

Consider `CCCCNC(=O)c1c(NC(=O)c2cc(F)ccc2F)nc2ccccn12`, for which the IC90 stood at 3.57 µM. Moreover, the IC50 (HEPG2TOX_HILL_SLOPE 2.83, HEPG2TOX_R_SQUARED 0.745, PBLUC_HILL_SLOPE 13.2, PBLUC_R_SQUARED 0.5, read-out: LUCIFERASE INFECTION ASSAY - IC50) is 3.03 µM.

As for `CN1CCN(c2nc(-c3c[nH]c4ccccc34)c(-c3ccccc3)s2)CC1`, the IC90 is more than 10 µM. Where the note is “PBLUC_HILL_SLOPE 45.6, PBLUC_R_SQUARED 0.243, read-out: LUCIFERASE INFECTION ASSAY - IC50”, the IC50 was determined as 9.92 µM.

For the compound `CC(c1ccc(S(C)(=O)=O)cc1)N(C)S(=O)(=O)c1ccccc1F` (stereo not given), the IC90 is more than 10 µM. Besides, under setting [1], the IC50 was more than 10 µM.

Consider `CC(C)(C)c1cc(NC(=O)Cn2cnc3scc(-c4ccccc4)c3c2=O)on1`, for which the IC90 was more than 10 µM. For the same compound, for the setting “HEPG2TOX_HILL_SLOPE 6.06, HEPG2TOX_R_SQUARED 0.374, PBLUC_HILL_SLOPE 1.95, PBLUC_R_SQUARED 0.0898, read-out: LUCIFERASE INFECTION ASSAY - IC50”, the IC50 is more than 10 µM.

On to `CCNC(=O)COc1ccc(/C=C2\COc3ccccc3C2=O)cc1OC`, for which the IC90 was more than 10 µM. The IC50 under setting [1] was more than 10 µM.

As to `N#Cc1c(Cl)cccc1N1CCCC1c1ccc2c(c1)OCCCO2` (stereo not given), the IC90 was more than 10 µM. Where the note is “HEPG2TOX_HILL_SLOPE 1.92, HEPG2TOX_R_SQUARED 0.934, read-out: LUCIFERASE INFECTION ASSAY - IC50”, the IC50 is more than 10 µM.

For `COc1ccccc1-n1cnnc1SCC(=O)NC(C)c1ccc(CC(C)C)cc1` (stereo not given), the IC90 is more than 10 µM. Further, the IC50 under setting [1] was more than 10 µM.

As to `Cc1ccc(CNc2ccc3nnc(C(F)(F)F)n3n2)cc1`, the IC90 was more than 10 µM. Also, the IC50 (FFLUC_HILL_SLOPE 15, FFLUC_R_SQUARED 0.243, read-out: LUCIFERASE INFECTION ASSAY - IC50) was more than 10 µM.

In the case of `Cc1cc(SC(C)C(=O)N(Cc2ccccc2)Cc2ccccc2)nc2ccccc12` (stereo not given), the concentration for an effect of 90% (IC90) was more than 10 µM. Under “HEPG2TOX_HILL_SLOPE 0.863, HEPG2TOX_R_SQUARED 0.817, read-out: LUCIFERASE INFECTION ASSAY - IC50”, the IC50 is more than 10 µM.

`Cc1noc(C)c1C(=O)NNC(=O)c1ccc(Cl)cc1`: the IC90 is more than 11.2 µM. Further, for the setting “PBLUC_HILL_SLOPE 16.2, PBLUC_R_SQUARED 0.359, read-out: LUCIFERASE INFECTION ASSAY - IC50”, the IC50 came out at 11 µM.

For `Cc1ccc(NC(=O)Cc2nc(-c3ccc4c(c3)OCO4)cs2)c(C)c1`, the IC90 was more than 10 µM. Besides, the IC50 (PBLUC_HILL_SLOPE 12.9, PBLUC_R_SQUARED 0.436, read-out: LUCIFERASE INFECTION ASSAY - IC50) came to 8.84 µM.
